{"source": "ChEMBL document CHEMBL3576778", "about": "“Structure-Activity Relationship Studies of a Series of Semisynthetic Lipopeptides Leading to the Discovery of Surotomycin, a Novel Cyclic Lipopeptide Being Developed for the Treatment of Clostridium difficile-Associated Diarrhea” (J Med Chem, 2015)", "type_in_all_cases": "functional", "key": {"[1]": {"tested_on": "Enterococcus faecalis", "test": "Antimicrobial activity against daptomycin-resistant Enterococcus faecalis ATCC 49452 incubated anaerobically at 37 degC for 48 hrs by agar dilution method", "conditions": "ATCC 49452, 48 h"}, "[2]": {"tested_on": "Staphylococcus aureus", "test": "Antimicrobial activity against daptomycin-non-susceptible Staphylococcus aureus 1179 incubated anaerobically at 37 degC for 48 hrs by agar dilution method", "conditions": "Staphylococcus aureus, 1179, 48 h"}, "[3]": {"tested_on": "Staphylococcus aureus", "test": "Potency index, ratio of MIC for daptomycin to MIC for test compound against daptomycin-non-susceptible Staphylococcus aureus 5012 incubated anaerobically at 37 degC for 48 hrs by agar dilution method"}, "[4]": {"tested_on": "Staphylococcus aureus", "test": "Antimicrobial activity against daptomycin-non-susceptible Staphylococcus aureus 5091 incubated anaerobically at 37 degC for 48 hrs by agar dilution method", "conditions": "Staphylococcus aureus, 5091, 48 h"}, "[5]": {"tested_on": "Staphylococcus aureus", "test": "Antimicrobial activity against daptomycin-non-susceptible Staphylococcus aureus 1146 incubated anaerobically at 37 degC for 48 hrs by agar dilution method", "conditions": "Staphylococcus aureus, 1146, 48 h"}, "[6]": {"tested_on": "Staphylococcus aureus", "test": "Potency index, ratio of MIC for daptomycin to MIC for test compound against daptomycin-non-susceptible Staphylococcus aureus 5010 incubated anaerobically at 37 degC for 48 hrs by agar dilution method"}, "[7]": {"tested_on": "Staphylococcus aureus", "test": "Antimicrobial activity against daptomycin-non-susceptible Staphylococcus aureus 5081 incubated anaerobically at 37 degC for 48 hrs by agar dilution method", "conditions": "Staphylococcus aureus, 5081, 48 h"}, "[8]": {"tested_on": "Staphylococcus aureus", "test": "Potency index, ratio of MIC for daptomycin to MIC for test compound against daptomycin-non-susceptible Staphylococcus aureus 5008 incubated anaerobically at 37 degC for 48 hrs by agar dilution method"}, "[9]": {"tested_on": "Staphylococcus aureus", "test": "Antimicrobial activity against daptomycin-non-susceptible Staphylococcus aureus 5034 incubated anaerobically at 37 degC for 48 hrs by agar dilution method", "conditions": "Staphylococcus aureus, 5034, 48 h"}, "[10]": {"tested_on": "Staphylococcus aureus", "test": "Antimicrobial activity against daptomycin-non-susceptible Staphylococcus aureus 1145 incubated anaerobically at 37 degC for 48 hrs by agar dilution method", "conditions": "Staphylococcus aureus, 1145, 48 h"}, "[11]": {"tested_on": "Staphylococcus aureus", "test": "Potency index, ratio of MIC for daptomycin to MIC for test compound against daptomycin-non-susceptible Staphylococcus aureus 278 incubated anaerobically at 37 degC for 48 hrs by agar dilution method"}, "[12]": {"tested_on": "Staphylococcus aureus", "test": "Antimicrobial activity against daptomycin-non-susceptible Staphylococcus aureus 5005 incubated anaerobically at 37 degC for 48 hrs by agar dilution method", "conditions": "Staphylococcus aureus, 5005, 48 h"}, "[13]": {"tested_on": "Staphylococcus aureus", "test": "Potency index, ratio of MIC for daptomycin to MIC for test compound against daptomycin-non-susceptible Staphylococcus aureus 5033 incubated anaerobically at 37 degC for 48 hrs by agar dilution method"}, "[14]": {"tested_on": "Prevotella sp.", "test": "Toxicity against Prevotella spp. assessed as inhibition of microbe growth"}, "[15]": {"tested_on": "Staphylococcus aureus", "test": "Antimicrobial activity against daptomycin-non-susceptible Staphylococcus aureus 5008 incubated anaerobically at 37 degC for 48 hrs by agar dilution method", "conditions": "Staphylococcus aureus, 5008, 48 h"}, "[16]": {"tested_on": "Staphylococcus aureus", "test": "Antimicrobial activity against daptomycin-non-susceptible Staphylococcus aureus 5010 incubated anaerobically at 37 degC for 48 hrs by agar dilution method", "conditions": "Staphylococcus aureus, 5010, 48 h"}, "[17]": {"tested_on": "Staphylococcus aureus", "test": "Antimicrobial activity against daptomycin-non-susceptible Staphylococcus aureus 278 incubated anaerobically at 37 degC for 48 hrs by agar dilution method", "conditions": "Staphylococcus aureus, 278, 48 h"}, "[18]": {"tested_on": "Staphylococcus aureus", "test": "Potency index, ratio of MIC for daptomycin to MIC for test compound against daptomycin-non-susceptible Staphylococcus aureus 5060 incubated anaerobically at 37 degC for 48 hrs by agar dilution method"}, "[19]": {"tested_on": "Staphylococcus aureus", "test": "Potency index, ratio of MIC for daptomycin to MIC for test compound against daptomycin-non-susceptible Staphylococcus aureus 5091 incubated anaerobically at 37 degC for 48 hrs by agar dilution method"}, "[20]": {"tested_on": "Staphylococcus aureus", "test": "Antimicrobial activity against daptomycin-non-susceptible Staphylococcus aureus 5004 incubated anaerobically at 37 degC for 48 hrs by agar dilution method", "conditions": "Staphylococcus aureus, 5004, 48 h"}, "[21]": {"tested_on": "Staphylococcus aureus", "test": "Potency index, ratio of MIC for daptomycin to MIC for test compound against daptomycin-non-susceptible Staphylococcus aureus 5005 incubated anaerobically at 37 degC for 48 hrs by agar dilution method"}, "[22]": {"tested_on": "Enterococcus faecium", "test": "Potency index, ratio of MIC for daptomycin to MIC for test compound against Enterococcus faecium ATCC 6569 incubated anaerobically at 37 degC for 48 hrs by agar dilution method"}, "[23]": {"tested_on": "Staphylococcus aureus", "test": "Potency index, ratio of MIC for daptomycin to MIC for test compound against daptomycin-non-susceptible Staphylococcus aureus 1326 incubated anaerobically at 37 degC for 48 hrs by agar dilution method"}, "[24]": {"tested_on": "Staphylococcus aureus", "test": "Antimicrobial activity against daptomycin-non-susceptible Staphylococcus aureus 5076 incubated anaerobically at 37 degC for 48 hrs by agar dilution method", "conditions": "Staphylococcus aureus, 5076, 48 h"}, "[25]": {"tested_on": "Staphylococcus aureus", "test": "Potency index, ratio of MIC for daptomycin to MIC for test compound against daptomycin-non-susceptible Staphylococcus aureus 1179 incubated anaerobically at 37 degC for 48 hrs by agar dilution method"}, "[26]": {"tested_on": "Enterococcus faecalis", "test": "Potency index, ratio of MIC for daptomycin to MIC for test compound against daptomycin-resistant Enterococcus faecalis ATCC 49452 incubated anaerobically at 37 degC for 48 hrs by agar dilution method"}, "[27]": {"tested_on": "Staphylococcus aureus", "test": "Antimicrobial activity against daptomycin-non-susceptible Staphylococcus aureus 5003 incubated anaerobically at 37 degC for 48 hrs by agar dilution method", "conditions": "Staphylococcus aureus, 5003, 48 h"}, "[28]": {"tested_on": "Staphylococcus aureus", "test": "Antimicrobial activity against daptomycin-non-susceptible Staphylococcus aureus 1326 incubated anaerobically at 37 degC for 48 hrs by agar dilution method", "conditions": "Staphylococcus aureus, 1326, 48 h"}, "[29]": {"tested_on": "Staphylococcus aureus", "test": "Potency index, ratio of MIC for daptomycin to MIC for test compound against daptomycin-non-susceptible Staphylococcus aureus 5081 incubated anaerobically at 37 degC for 48 hrs by agar dilution method"}, "[30]": {"tested_on": "Staphylococcus aureus", "test": "Antimicrobial activity against daptomycin-non-susceptible Staphylococcus aureus 5063 incubated anaerobically at 37 degC for 48 hrs by agar dilution method", "conditions": "Staphylococcus aureus, 5063, 48 h"}}}
{"smiles": "CCCCCc1ccc(/C(C)=C/C(=O)N[C@@H](Cc2c[nH]c3ccccc23)C(=O)N[C@H](CC(N)=O)C(=O)N[C@@H](CC(=O)O)C(=O)N[C@@H]2C(=O)NCC(=O)N[C@@H](CCCN)C(=O)N[C@@H](CC(=O)O)C(=O)N[C@H](C)C(=O)N[C@@H](CC(=O)O)C(=O)NCC(=O)N[C@H](CO)C(=O)N[C@@H]([C@@H](C)CC(=O)O)C(=O)N[C@@H](CC(=O)c3ccccc3N)C(=O)O[C@@H]2C)cc1", "values": [{"measurement": "MIC", "setting": "[1]", "value": 4, "unit": "µg/mL"}, {"measurement": "MIC", "setting": "[2]", "value": 0.25, "unit": "µg/mL"}, {"measurement": "Ratio", "setting": "[3]", "value": 2}, {"measurement": "MIC", "setting": "[4]", "value": 0.5, "unit": "µg/mL"}, {"measurement": "MIC", "setting": "[5]", "value": 0.25, "unit": "µg/mL"}, {"measurement": "Ratio", "setting": "[6]", "value": 2}, {"measurement": "MIC", "setting": "[7]", "value": 1, "unit": "µg/mL"}, {"measurement": "Ratio", "setting": "[8]", "value": 2}, {"measurement": "MIC", "setting": "[9]", "value": 0.5, "unit": "µg/mL"}, {"measurement": "MIC", "setting": "[10]", "value": 0.25, "unit": "µg/mL"}, {"measurement": "Ratio", "setting": "[11]", "value": 2}, {"measurement": "MIC", "setting": "[12]", "value": 1, "unit": "µg/mL"}, {"measurement": "Ratio", "setting": "[13]", "value": 2}, {"measurement": "MIC", "setting": "[14]", "value": "≥ 8190", "unit": "µg/mL"}, {"measurement": "MIC", "setting": "[15]", "value": 0.5, "unit": "µg/mL"}, {"measurement": "MIC", "setting": "[16]", "value": 0.25, "unit": "µg/mL"}, {"measurement": "MIC", "setting": "[17]", "value": 1, "unit": "µg/mL"}, {"measurement": "Ratio", "setting": "[18]", "value": 2}, {"measurement": "Ratio", "setting": "[19]", "value": 2}, {"measurement": "MIC", "setting": "[20]", "value": 0.25, "unit": "µg/mL"}, {"measurement": "Ratio", "setting": "[21]", "value": 2}, {"measurement": "Ratio", "setting": "[22]", "value": ">8"}, {"measurement": "Ratio", "setting": "[23]", "value": 2}, {"measurement": "MIC", "setting": "[24]", "value": 0.5, "unit": "µg/mL"}, {"measurement": "Ratio", "setting": "[25]", "value": 2}, {"measurement": "Ratio", "setting": "[26]", "value": ">8"}, {"measurement": "MIC", "setting": "[27]", "value": 0.25, "unit": "µg/mL"}, {"measurement": "MIC", "setting": "[28]", "value": 0.5, "unit": "µg/mL"}, {"measurement": "Ratio", "setting": "[29]", "value": 2}, {"measurement": "MIC", "setting": "[30]", "value": 1, "unit": "µg/mL"}]}
